The results in this text go back to patent US4731109A, “Herbicidal 2-haloacetanilides” (Monsanto Company, priority 1982, dated 1988).

As usually defined, the inhibition is the percentage by which the read-out fell short of the control.

What all share (assay): Field preemergence activity in peanuts, surface applied
What all share (type): in vivo

The test system of one experiment is Florida Pusley. The note with it: for inhibition at 2240 g/ha: 2.24 Kg/Ha; for inhibition at 4480 g/ha: 4.48 Kg/Ha. An excerpt: (§1) It will be understood by those skilled in the art that not all of the named weeds are selectively controlled in all of the named crops under all conditions of climate, soil, moisture and/or herbicide application modes. Selectivity data for control of the foregoing weeds in the crops soybeans, corn, cotton and peanuts from a plurality of field tests in various locations under various conditions of soil, moisture, etc., is shown collectively in Tables VIII-XI, respectively.
(§2) In Table XI is presented preemergence activity data for the compound of Example 1 against three resistant annual weeds, i.e., Texas panicum, bristly starbur and Florida pusley in peanuts for periods up to 12 WAT. The data in Table XI represent the average of three replicate runs in sandy loam soil having 1.3% organic matter, 79.2% sand and 10% clay; herbicide surface applied.

A further experiment has as its system Bristly Starbur. The conditions noted are these: for inhibition at 2240 g/ha / inhibition at 3360 g/ha / inhibition at 4480 g/ha: pre-emergence, read-out: Percent Inhibition; for inhibition at 2240 g/ha: 2.24 Kg/Ha; for inhibition at 3360 g/ha: 3.36 Kg/Ha; for inhibition at 4480 g/ha: 4.48 Kg/Ha.
Excerpt: as §1, §2

The next experiment relates to Texas panicum. The conditions noted are these: pre-emergence, read-out: Percent Inhibition; for inhibition at 2240 g/ha: 2.24 Kg/Ha; for inhibition at 3360 g/ha: 3.36 Kg/Ha; for inhibition at 4480 g/ha: 4.48 Kg/Ha.
Excerpt: as §1, §2

The mark [1] stands for this setting: pre-emergence, 4 WAT, read-out: Percent Inhibition.
[2] abbreviates: pre-emergence, 8 WAT, read-out: Percent Inhibition.

Like-named read-outs stand apart in the source and are kept apart here.

With `CCOCN(C(=O)CCl)c1c(C)cccc1C(F)(F)F` [Example 1, N-(ethoxymethyl)-2'-trifluoromethyl-6'-methyl-2-chloroacetanilide], the “control” value is on record as 95% in the experiment with Florida Pusley (4.48 kg/ha, 12 WAT) and “complete control” in the experiment with Bristly Starbur (4.48 kg/ha, 12 WAT). Also, the inhibition at 2240 g/ha came out at 0% with Florida Pusley (setting [1]); 90% with Florida Pusley (setting [2]); 78% in the experiment on Bristly Starbur (8 WAT); 40% in the experiment on Bristly Starbur (12 WAT); 50% with Texas panicum (4 WAT); 67% with Texas panicum (8 WAT). For the same molecule, the inhibition at 2240 g/ha with Texas panicum (12 WAT) came out at 40%. For the same molecule, the inhibition at 3360 g/ha in the experiment on Florida Pusley (pre-emergence, 3.36 Kg/Ha, 4 WAT, read-out: Percent Inhibition) was 0%; in the experiment with Bristly Starbur (8 WAT), 85%; in the experiment on Bristly Starbur (12 WAT), 60%; with Texas panicum (4 WAT) it was 68%; in the experiment with Texas panicum (8 WAT) it was 63%; in the experiment with Texas panicum (12 WAT) it was 55%. In addition, the inhibition at 4480 g/ha in the experiment on Florida Pusley (setting [1]) is 0%; with Florida Pusley (setting [2]) it was 95%; with Florida Pusley (pre-emergence, 12 WAT, read-out: Percent Inhibition), 95%; in the experiment with Bristly Starbur (8 WAT), 95%; in the experiment with Bristly Starbur (12 WAT) it was 100%; in the experiment on Texas panicum (4 WAT), 85%. Besides, the results for the inhibition at 4480 g/ha in the experiment with Texas panicum (8 WAT) and in the experiment with Texas panicum (12 WAT) were 88% and 78%, respectively.
